Like-named read-outs stand apart in the source and are kept apart here.
Columns and labels:
SH-SY5Y = test: Neurotoxicity (Ntox) assay: SH-SY5Y viability after supernatant from activated differentiated THP-1 cells; assay type: cell-based, human; conditions: 25 μM compound on THP-1; SH-SY5Y viability 72 h post-addition of supernatant
Source text: This study used differentiated (using phorbol myristate acetate, PMA) human acute monocytic leukemia cells, THP-1, cultured in RPMI 1640 medium supplemented with additives. Earlier studies with THP-1 cell line indicate that upon LPS/IFNγ activation, these cells release neurotoxic factors [Cheung Y T, et al. Neurotoxicology. 2009; 30(1):127-35]. These are remarkably plastic cells, which can potentially polarize to multiple cell lineages on the application of specific stimuli. On treatment with PMA, the suspension (floating cells) mature to a highly adherent phenotype with increased phagocytic ability (macrophage/microglia like). Typically, after PMA differentiation THP-1 monocytes, display increased cell surface expression of CD11b and CD14. PMA differentiated macrophage/microglia with a combination of LPS/IFNγ/amyloid beta peptide were used to activate the cells; and small synthetic molecules were tested. The cell-free supernatant generated from microglia were then transferred to previously mature neuronal cells lines.
Seed (0.5×10^6) THP-1 cells in each well of a 12-well tissue culture plate in warm complete growth medium up to 500 μl to 1 ml per well. […]

[1] = target: biotinylated amyloid-beta(1-42) (bioAbeta42) (Homo sapiens, UniProt P05067); assay type: biochemical; conditions: Example 5; ND = inhibition activity not detected over 200 μM; read-out: Inhibition of Aβ oligomerization, μM IC50
Sequence of biotinylated amyloid-beta(1-42) (bioAbeta42) (P05067 672-713): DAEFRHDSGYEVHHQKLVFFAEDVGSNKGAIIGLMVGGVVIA

Aβ 1-40 = Aβ 1-40 (Homo sapiens, UniProt P05067); test: Aβ ThT aggregation (fibrillization) assay; assay type: biochemical
Sequence of Aβ 1-40 (P05067 672-711): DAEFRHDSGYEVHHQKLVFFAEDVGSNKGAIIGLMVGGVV

[2] = system: differentiated THP-1 cells; test: Anti-inflammatory cytokine levels (M2 indicators) during neurotoxicity assay; assay type: cell-based, human; conditions: FIG. 6
Source text: This study used differentiated (using phorbol myristate acetate, PMA) human acute monocytic leukemia cells, THP-1, cultured in RPMI 1640 medium supplemented with additives. […] On treatment with PMA, the suspension (floating cells) mature to a highly adherent phenotype with increased phagocytic ability (macrophage/microglia like). Typically, after PMA differentiation THP-1 monocytes, display increased cell surface expression of CD11b and CD14. PMA differentiated macrophage/microglia with a combination of LPS/IFNγ/amyloid beta peptide were used to activate the cells; and small synthetic molecules were tested. The cell-free supernatant generated from microglia were then transferred to previously mature neuronal cells lines. The THP-1 monocytes should have adhered to the plate by now; these are defined as M0 macrophages. Remove the differentiating medium containing PMA and add the Experimental medium with stimulants at a final concentration of IFNγ 400 ng/ml and LPS 1 μg/ml. These stimulants are the first stimulus for the conversion into M1 macrophages. Keep the first stimulus on for three hours and add 25 μM of compounds in the required wells (This is aimed at converting M1→M2 macrophages/microglia like cells). […]

SIM-A9 cells = test: Anti-inflammation assay: TNF-α production from LPS stimulated SIM-A9 cells (ELISA); assay type: cell-based
[3] = compound at 100 μM, Example 5, versus DMSO control, read-out: Inhibition of Aβ fibrillization at concentration 100 μM, Inhibition %
[4] = SIM-A9, read-out: TNF-α Inhibition
[5] = read-out: Inhibition of Aβ fibrillization at concentration 100 μM, Inhibition %, compound at 100 μM, Example 5, versus DMSO control
[6] = read-out: % inhibition of Aβ fibrillization (at 100 μ M), compound at 100 μM, Example 3
[7] = compound 2.7 μM, LPS stimulated SIM-A9 cells, read-out: TNF-α Inhibition
[8] = compound at 100 μM, Example 5, versus DMSO control

## O=C(O)c1ccccc1NCc1ccccc1 [2-(benzylamino)benzoic acid]
SH-SY5Y
  Rescue of neuronal cells under Aβ-induced neurotoxicity / neuroinflammation: able to rescue neuronal cells under Aβ-induced neurotoxicity

## NS(=O)(=O)c1cc(C(=O)O)c(NCc2ccco2)cc1Cl [Furosemide, 4-Chloro-2-((furan-2-ylmethyl)amino)-5-sulfamoylbenzoic Acid, reference compound]
[1]
  IC50: > 200 µM
Aβ 1-40; [3]
  inhibition at 100 µM: 8.56%
[2]
  Concentrations of anti-inflammatory cytokines (IL-4, IL-10, IL-1RA, Arginase; M2 indicators): increases the concentrations of anti-inflammatory cytokines

## COc1ccc(C(O)C(F)(F)F)c(NCc2ccco2)c1 (stereo not drawn) [WW003, 2,2,2-trifluoro-1-(2-((furan-2-ylmethyl)amino)-4-methoxyphenyl) ethan-1-ol]
SIM-A9 cells; [4]
  inhibition at 2.7 µM: 28%
[1]
  IC50: > 200 µM
Aβ 1-40; [5]
  inhibition at 100 µM: 36.8%

## COc1ccc(C(O)C(F)(F)F)c(NCc2cscn2)c1 (stereo not drawn) [WW005]
SIM-A9 cells; [4]
  inhibition at 2.7 µM: 27%
[1]
  IC50: 130 ± 28.4 µM
Aβ 1-40; [5]
  inhibition at 100 µM: 6.49%

## OC(c1ccc(F)cc1NCc1ccco1)C(F)(F)F (stereo not drawn) [WW011, 2,2,2-Trifluoro-1-(4-fluoro-2-((furan-2-ylmethyl)amino)phenyl) ethan-1-ol]
SIM-A9 cells; [4]
  inhibition at 2.7 µM: 25.9%
[1]
  IC50: 153 ± 48 µM
Aβ 1-40; [5]
  inhibition at 100 µM: 5.14%

## OC(c1ccc(Cl)cc1NCc1ccco1)C(F)(F)F (stereo not drawn) [WW013, 1-(4-Chloro-2-((furan-2-ylmethyl)amino)phenyl)-2,2,2-trifluoroethan-1-ol]
SIM-A9 cells; [4]
  inhibition at 2.7 µM: 33%
[1]
  IC50: > 200 µM
Aβ 1-40; [5]
  inhibition at 100 µM: 60.7%

## OC(c1ccc(Br)cc1NCc1ccco1)C(F)(F)F (stereo not drawn) [WW016, 1-(4-Bromo-2-((furan-2-ylmethyl)amino)phenyl)-2,2,2-trifluoroethan-1-ol]
SIM-A9 cells; [4]
  inhibition at 2.7 µM: 34.8%
[1]
  IC50: > 200 µM
Aβ 1-40; [6]
  inhibition at 100 µM: 81.3%
Aβ 1-40; [5]
  inhibition at 100 µM: 81%

## OC(c1ccc(Br)cc1NCc1cscn1)C(F)(F)F (stereo not drawn) [WW017, 1-(4-Bromo-2-((thiazol-4-ylmethyl)amino)phenyl)-2,2,2-trofluoroethan-1-ol]
SIM-A9 cells; [4]
  inhibition at 2.7 µM: 31%
[1]
  IC50: > 200 µM
Aβ 1-40; [6]
  inhibition at 100 µM: 33%
Aβ 1-40; [5]
  inhibition at 100 µM: 33%

## OC(c1ccc(Cl)cc1NCc1cscn1)C(F)(F)F (stereo not drawn) [WW021, 1-(4-Chloro-2-((thiazol-4-ylmethyl)amino)phenyl)2,2,2-trifluoroethan-1-ol]
SIM-A9 cells; [4]
  inhibition at 2.7 µM: 38%
[1]
  IC50: > 200 µM
Aβ 1-40; [5]
  inhibition at 100 µM: 27.9%

## O=C(O)c1cc(S(=O)(=O)N2CCCCC2)c(Cl)cc1NCc1ccco1 [WW096, 4-Chloro-2-((furan-2-ylmethyl)amino)-5-(piperidin-1-ylsulfonyl) Benzoic Acid]
SIM-A9 cells; [7]
  inhibition at 2.7 µM: 11%
[1]
  IC50: > 200 µM
Aβ 1-40; [3]
  inhibition at 100 µM: 19.1%

## CNS(=O)(=O)c1cc(C(=O)OC)c(NCc2ccco2)cc1Cl [WW100]
SIM-A9 cells; [7]
  inhibition at 2.7 µM: 31%
[1]
  IC50: 56 ± 26.6 µM
Aβ 1-40; [3]
  inhibition at 100 µM: 27.1%

## CNS(=O)(=O)c1cc(C(N)=O)c(NCc2ccco2)cc1Cl [WW101, 4-Chloro-2-((furan-2-ylmethyl)amino)-5-(N-methylsulfamoyl)benzamide]
SIM-A9 cells; [7]
  inhibition at 2.7 µM: 27%
[1]
  IC50: 82.4 ± 28.5 µM
Aβ 1-40; [8]
  Inhibition of Aβ fibrillization at concentration 100 μM, Inhibition %: Pro- fibrillization

## CNC(=O)c1cc(S(=O)(=O)NC)c(Cl)cc1NCc1ccco1 [WW102, 4-Chloro-2-((furan-2-ylmethyl)amino)-N-methyl-5-(N-methylsulfamoyl)benzamide]
SIM-A9 cells; [7]
  inhibition at 2.7 µM: 25%
[1]
  IC50: 103 ± 22.1 µM
Aβ 1-40; [8]
  Inhibition of Aβ fibrillization at concentration 100 μM, Inhibition %: Pro- fibrillization
